Positions count from the first letter of the chain named.
Key:
Assay in all cases: two-electrode voltage clamp, Xenopus oocytes, current integral
Assay type in all cases: cell-based
human P2X4 [1] = molecular target: T1, human P2X4 (Homo sapiens, UniProt Q99571); settings: read-out: % inhibition at 250 μM
T1 sequence (Q99571 1-388): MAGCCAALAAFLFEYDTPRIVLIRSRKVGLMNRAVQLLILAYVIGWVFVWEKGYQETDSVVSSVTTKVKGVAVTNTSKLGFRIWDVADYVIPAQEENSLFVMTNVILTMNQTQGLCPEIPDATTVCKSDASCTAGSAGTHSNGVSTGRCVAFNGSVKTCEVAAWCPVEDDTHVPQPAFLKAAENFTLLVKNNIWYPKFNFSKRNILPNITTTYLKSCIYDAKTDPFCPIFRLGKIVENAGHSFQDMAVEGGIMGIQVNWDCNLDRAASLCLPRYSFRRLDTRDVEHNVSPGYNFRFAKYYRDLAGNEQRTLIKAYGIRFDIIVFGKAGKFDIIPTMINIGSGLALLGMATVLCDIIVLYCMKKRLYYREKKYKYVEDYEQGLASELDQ

human P2X4 [2] = molecular target: T1, human P2X4
human P2X4 [3] = molecular target: T2, human P2X4 (Homo sapiens, UniProt Q99571, W50A); settings: read-out: % inhibition at 250 μM
T2 sequence (Q99571 1-388 W50A): T1 sequence (Q99571 1-388) with W50A

human P2X4 [4] = molecular target: T3, human P2X4 (Homo sapiens, UniProt Q99571, M336A); settings: read-out: % inhibition at 250 μM
T3 sequence (Q99571 1-388 M336A): T1 sequence (Q99571 1-388) with M336A

human P2X4 [5] = molecular target: T4, human P2X4 (Homo sapiens, UniProt Q99571, E51A); settings: read-out: % inhibition at 250 μM
T4 sequence (Q99571 1-388 E51A): T1 sequence (Q99571 1-388) with E51A

human P2X4 [6] = molecular target: T5, human P2X4 (Homo sapiens, UniProt Q99571, D331A); settings: read-out: % inhibition at 250 μM
T5 sequence (Q99571 1-388 D331A): T1 sequence (Q99571 1-388) with D331A

human P2X4 [7] = molecular target: T1, human P2X4; remark: listed apart in the source

**Q.** C[C@H](CCC(=O)NCCS(=O)(=O)O)[C@H]1CC[C@H]2[C@@H]3[C@H](O)C[C@@H]4C[C@H](O)CC[C@]4(C)[C@H]3CC[C@]12C [t-CDCA, tauro-chenodeoxycholic acid] was tested. Which inhibition at 250 µM (human P2X4 [1]) did it give?
**A.** 25 ± 9%

**Q.** For C[C@H](CCC(=O)O)[C@H]1CC[C@H]2[C@@H]3CC[C@@H]4C[C@H](O)CC[C@]4(C)[C@H]3C[C@H](O)[C@]12C [DCA, deoxycholic acid], which inhibition at 250 µM (human P2X4 [1]) is on record?
**A.** 73 ± 2%

**Q.** How did the IC50 (human P2X4 [2]) turn out when C[C@H](CCC(=O)NCCS(=O)(=O)O)[C@H]1CC[C@H]2[C@@H]3CC[C@@H]4C[C@H](O)CC[C@]4(C)[C@H]3C[C@H](O)[C@]12C [t-DCA, tauro-deoxycholic acid] was run?
**A.** ~160 µM

**Q.** What about the inhibition at 250 µM (human P2X4 [3]) of the same compound?
**A.** 63%

**Q.** What about the inhibition at 250 µM (human P2X4 [4]) of the same compound?
**A.** 22%

**Q.** What about the inhibition at 250 µM (human P2X4 [5]) of the same compound?
**A.** 74%

**Q.** And the inhibition at 250 µM (human P2X4 [6])?
**A.** 38%

**Q.** For Nc1ncnc2c1ncn2[C@@H]1O[C@H](COP(=O)(O)OP(=O)(O)OP(=O)(O)O)[C@@H](O)[C@H]1O [ATP], which EC50 (human P2X4 [7]) is on record?
**A.** 4.8 ± 1.2 µM

— paper PMC6572003 (The Journal of General Physiology, 2019)
